A value given as a limit tells only on which side of the number the result lay.

The assay has as its system M-NFS-60 cells. Briefly: M-NFS-60 cell in vitro assay (CCK, 48 h, M-CSF factor medium). In kind it is cell-based. The conditions noted are these: M-NFS-60 cells; read-out: M-NFS-60cellassay IC50. In short, it runs like this: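 IC50 values were fitted from CCK absorbance (450 nm, 2 h development) after 48 h compound treatment. Cells: M-NFS-60, seeded 2000/well and rested 4 h, grown in medium carrying 25 ng/ml M-CSF factor plus 10% serum; compounds serially diluted in DMSO.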
`Cn1cc(-c2cncc(N[C@H]3CCc4c(NC(c5cccc(Cl)c5)C(F)(F)F)cccc43)n2)cn1` (stereo partly drawn) [Compound 61, (1S)—N^4-(1-(3-chlorophenyl)-2,2,2-trifluoroethyl)-N1-(6-(1-methyl-1H-pyrazol-4-yl)pyrazin-2-yl)-2,3-dihydro-1H-indene-1,4-diamine]: the IC50 is greater than 0.5 µM.
The same measure for `Cn1cc(-c2cncc(N[C@H]3CCc4c(C(=O)OC5CCCCC5)cccc43)n2)cn1` [Compound 62, cyclohexyl(S)-1-((6-(1-methyl-1H-pyrazol-4-yl)pyrazin-2-yl)amino)-2,3-dihydro-1H-indene-4-carboxylate]: greater than 0.5 µM; for `Cn1cc(-c2cncc(N[C@H]3CCc4c(NC5(c6ccccc6)COC5)cccc43)c2)cn1` [Compound 63, (S)—N^1-(5-(1-methyl-1H-pyrazol-4-yl)pyridin-3-yl)-N^4-(3-phenyloxetan-3-yl)-2,3-dihydro-1H-indene-1,4-diamine]: greater than 0.5 µM.
For `Cn1cc(-c2cncc(N[C@H]3CCc4c(NC(=O)N5CCC(C)(C)C5=O)cccc43)n2)cn1` [Compound 64, (S)-3,3-dimethyl-N-(1-((6-(1-methyl-1H-pyrazol-4-yl)pyrazin-2-yl)amino)-2,3-dihydro-1H-inden-4-yl)-2-oxopyrrolidine-1-carboxamide], the IC50 lay in the range of 0.2 to 0.5 µM.
The same measure for `Cn1cc(-c2cncc(N[C@H]3CCc4c(NC(=O)NC5CCCCC5)cccc43)n2)cn1` [Compound 65a]: less than 0.05 µM; for `Cn1cc(-c2cncc(N[C@H]3CCc4c(NC(=O)NC5CCC(F)(F)CC5)cccc43)n2)cn1` [Compound 65b]: 0.05 to 0.2 µM; for `Cn1cc(-c2cncc(N[C@H]3CCc4c(NC(=O)OC5CCCCC5)cccc43)n2)cn1` [Compound 65c]: less than 0.05 µM.
The same measure for `Cn1cc(-c2cncc(N[C@H]3CCc4c(NC(=O)NCC5CC5)cccc43)n2)cn1` [Compound 65d]: greater than 0.5 µM; for `Cn1cc(-c2cncc(N[C@H]3CCc4c(NC(=O)Nc5ccccc5F)cccc43)n2)cn1` [Compound 65e]: less than 0.05 µM; for `Cn1cc(-c2cnc(N)c(O[C@H]3CCc4c(Nc5cc(C(C)(C)C)on5)cccc43)c2)cn1` [Compound 67, (S)—N-(1-((2-amino-5-(1-methyl-1H-pyrazol-4-yl)pyridin-3-yl)oxy)-2,3-dihydro-1H-inden-4-yl)-5-(tert-butyl) isoxazol-3-amine]: less than 0.05 µM.
The same measure for `Cn1cc(-c2cnc(N)c(O[C@H]3CCc4c(Nc5cc(C(C)(C)C)on5)cccc43)c2)cn1` [Compound 68, (S)—N-(1-((2-amino-5-(1-methyl-1H-pyrazol-4-yl)pyridin-3-yl)oxy)-2,3-dihydro-1H-inden-4-yl)-5-(tert-butyl) isoxazol-3-amine]: 0.2 to 0.5 µM; for `COc1cc(C(=O)Nc2cccc3c2C(=O)CC3Nc2cncc(-c3cnn(C)c3)c2)ccc1F` (stereo not shown) [Compound 69, 4-fluoro-3-methoxy-N-(1-((5-(1-methyl-1H-pyrazol-4-yl)pyridin-3-yl)amino)-3-oxo-2,3-dihydro-1H-inden-4-yl)benzamide]: greater than 0.5 µM.
For `Cn1cc(-c2cncc(NC3CC(=O)c4c(NC(=O)c5ccc(C(F)(F)F)cc5)cccc43)c2)cn1` (stereo not shown) [Compound 70, N-(1-((5-(1-methyl-1H-pyrazol-4-yl)pyridin-3-yl)amino)-3-oxo-2,3-dihydro-1H-inden-4-yl)-4-(trifluoromethyl)benzamide], the IC50 is greater than 0.5 µM.
For `Cn1cc(-c2cncc(NC3CC(F)c4c(NC(=O)c5ccc(C(F)(F)F)cc5)cccc43)c2)cn1` (stereo not shown) [Compound 71, N-(3-fluoro-1-((5-(1-methyl-1H-pyrazol-4-yl)pyridin-3-yl)amino)-2,3-dihydro-1H-inden-4-yl)-4-(trifluoromethyl)benzamide], the IC50 lay in the range of 0.2 to 0.5 µM.
With `Cn1cc(-c2cncc(NC3CC(O)c4c(NC(=O)c5ccc(C(F)(F)F)cc5)cccc43)c2)cn1` (stereo not shown) [Compound 71a, N-(3-hydroxy-1-((5-(1-methyl-1H-pyrazol-4-yl)pyridin-3-yl)amino)-2,3-dihydro-1H-inden-4-yl)-4-(trifluoromethyl)benzamide], the IC50 was 0.05 to 0.2 µM.
For the molecule `Cc1ncc(-c2cnn(C)c2)cc1O[C@H]1CCc2c(NC(=O)c3ccc(C(F)(F)F)cc3)cccc21` [Compound 72, (S)—N-(1-((2-methyl-5-(1-methyl-1H-pyrazol-4-yl)pyridin-3-yl)oxy)-2,3-dihydro-1H-inden-4-yl)-4-(trifluoromethyl)benzamide], the IC50 is greater than 0.5 µM.
As for `Cn1cc2ncc(N[C@H]3CCc4c(C(=O)Nc5cccc(C6CC6)c5)cccc43)cc2n1` [Compound 74a], the IC50 is less than 0.05 µM.
The same measure for `Cn1ncc2ccc(N[C@H]3CCc4c(C(=O)Nc5cccc(C6CC6)c5)cccc43)cc21` [Compound 74b]: greater than 0.5 µM.
The same measure for `Cn1cc2cc(N[C@H]3CCc4c(C(=O)Nc5cccc(C6CC6)c5)cccc43)cnc2n1` [Compound 74c]: 0.05 to 0.2 µM; for `Cn1cc2cc(N[C@H]3CCc4c(C(=O)Nc5cccc(C6CC6)c5)cccc43)ccc2n1` [Compound 74d]: greater than 0.5 µM.
With `Cn1ccc2ncc(N[C@H]3CCc4c(C(=O)Nc5cccc(C6CC6)c5)cccc43)cc21` [Compound 74e] the figure was less than 0.05 µM.
Regarding `Cc1cc2ncc(N[C@H]3CCc4c(C(=O)Nc5cccc(C6CC6)c5)cccc43)cn2n1` [Compound 74f], the IC50 was less than 0.05 µM.
With `O=C(Nc1cccc(C2CC2)c1)c1cccc2c1CC[C@@H]2Nc1cnc2ccnn2c1` [Compound 74g] the figure was less than 0.05 µM; with `Cc1cccc(NC(=O)c2cccc3c2CC[C@@H]3Nc2cnc3cn(C)nc3c2)c1F` [Compound 74i], less than 0.05 µM; with `Cc1cccc(NC(=O)c2cccc3c2CC[C@@H]3Oc2cnc3cnn(C)c3c2)c1F` [Compound 75, (S)—N-(2-fluoro-3-methylphenyl)-1-((1-methyl-1H-pyrazolo[4,3-b]pyridin-6-yl)oxy)-2,3-dihydro-1H-indene-4-carboxamide], less than 0.05 µM.
Take `CN(C)Cc1ccc(NC(=O)c2cccc3c2CC[C@@H]3Oc2cnc3cnn(C)c3c2)cc1` [Compound 76aa]: the IC50 is 0.05 to 0.2 µM.
Take `Cn1ncc2ncc(O[C@H]3CCc4c(C(=O)Nc5cccc(C6CC6)c5)cccc43)cc21` [Compound 76ab]: the IC50 is less than 0.05 µM.
As for `COc1cc(NC(=O)c2cccc3c2CC[C@@H]3Oc2cnc3cnn(C)c3c2)ccc1F` [Compound 76ad], the half-inhibitory concentration (IC50) was less than 0.05 µM.
Consider `Cn1ncc2ncc(O[C@H]3CCc4c(C(=O)Nc5ccc6c(c5)OC(F)(F)O6)cccc43)cc21` [Compound 76ae], for which the half-maximal inhibitory concentration (IC50) is less than 0.05 µM.
With `Cn1cc2ncc(O[C@H]3CCc4c(C(=O)Nc5cccc(C6CC6)c5)cccc43)cc2n1` [Compound 76af] the figure was less than 0.05 µM; with `COc1ccc(F)c(NC(=O)c2cccc3c2CC[C@@H]3Oc2cnc3cnn(C)c3c2)c1` [Compound 76ag], 0.05 to 0.2 µM.
Regarding `Cc1ccc(F)c(NC(=O)c2cccc3c2CC[C@@H]3Oc2cnc3cnn(C)c3c2)c1` [Compound 76ah], the IC50 was less than 0.05 µM.
On to `Cc1cccc(NC(=O)c2cccc3c2CC[C@@H]3Oc2cnc3cn(C)nc3c2)c1F` [Compound 76aj], for which the IC50 is less than 0.05 µM.
As for `COc1cccc(NC(=O)c2cccc3c2CC[C@@H]3Oc2cnc3cnn(C)c3c2)c1F` [Compound 76ak], the IC50 was 0.05 to 0.2 µM.
The same measure for `Cc1cc(NC(=O)c2cccc3c2CC[C@@H]3Oc2cnc3cnn(C)c3c2)ccc1F` [Compound 76am]: less than 0.05 µM; for `Cn1ncc2ncc(O[C@H]3CCc4c(C(=O)Nc5ccc(F)c(Cl)c5)cccc43)cc21` [Compound 76an]: less than 0.05 µM; for `Cn1ncc2ncc(O[C@H]3CCc4c(C(=O)Nc5nn(C)c6ccccc56)cccc43)cc21` [Compound 76ao]: less than 0.05 µM.
On to `CN(C)CCOc1cccc(NC(=O)c2cccc3c2CC[C@@H]3Oc2cnc3cnn(C)c3c2)c1` [Compound 76ap], for which the IC50 lay in the range of 0.05 to 0.2 µM.
With `COc1cc(NC(=O)c2cccc3c2CC[C@@H]3Oc2cnc3cn(C)nc3c2)ccc1F` [Compound 76aq] the figure was less than 0.05 µM; with `Cc1cc(NC(=O)c2cccc3c2CC[C@@H]3Oc2cnc3cn(C)nc3c2)ccc1F` [Compound 76ar], less than 0.05 µM; with `Cn1cc2ncc(O[C@H]3CCc4c(C(=O)Nc5ccc(F)c(Cl)c5)cccc43)cc2n1` [Compound 76as], less than 0.05 µM.
The same measure for `Cn1ncc2ncc(O[C@H]3CCc4c(C(=O)Nc5cncc(C6CC6)c5)cccc43)cc21` [Compound 76at]: less than 0.05 µM; for `Cn1cc2ncc(O[C@H]3CCc4c(C(=O)Nc5ccccc5F)cccc43)cc2n1` [Compound 76au]: less than 0.05 µM; for `Cn1cc2ncc(O[C@H]3CCc4c(C(=O)Nc5cccc(C(F)(F)F)c5F)cccc43)cc2n1` [Compound 76av]: less than 0.05 µM.
The same measure for `Cc1ccc(F)c(NC(=O)c2cccc3c2CC[C@@H]3Oc2cnc3cn(C)nc3c2)c1` [Compound 76ax]: less than 0.05 µM; for `COc1ccc(F)c(NC(=O)c2cccc3c2CC[C@@H]3Oc2cnc3cn(C)nc3c2)c1` [Compound 76ay]: less than 0.05 µM; for `COc1cccc(NC(=O)c2cccc3c2CC[C@@H]3Oc2cnc3cn(C)nc3c2)c1F` [Compound 76az]: less than 0.05 µM.
On to `Cc1cncc(NC(=O)c2cccc3c2CC[C@@H]3Oc2cnc3cn(C)nc3c2)c1` [Compound 76ba], for which the IC50 was less than 0.05 µM.
With `Cn1cc2ncc(O[C@H]3CCc4c(C(=O)Nc5cccc(C6CC6)c5F)cccc43)cc2n1` [Compound 76bb] the figure was less than 0.05 µM.
As to `Cn1ncc2ncc(O[C@H]3CCc4c(C(=O)Nc5cccc(C6CC6)c5F)cccc43)cc21` [Compound 76bc], the IC50 was less than 0.05 µM.
As for `COc1c(Cl)cccc1NC(=O)c1cccc2c1CC[C@@H]2Oc1cnc2cn(C)nc2c1` [Compound 76be], the IC50 lay in the range of 0.05 to 0.2 µM.
`Cn1ncc2ncc(O[C@H]3CCc4c(NC(=O)c5cccc(C6CC6)c5)cccc43)cc21` [Compound 77, (S)-3-cyclopropyl-N-(1-((1-methyl-1H-pyrazolo[4,3-b]pyridin-6-yl)oxy)-2,3-dihydro-1H-inden-4-yl)benzamide]: the IC50 was 0.05 to 0.2 µM.

In general, IC50 refers to the concentration at which inhibition is half-maximal.
